In ChEMBL document CHEMBL1128044, “Dichotomin A, a new cyclic hexapeptide from Stellaria dichotoma L. var. lanceolata Bge” (Bioorg Med Chem Lett, 1995):
≈ marks a conversion by molar mass, not a printed value. Residues, ends and D or L forms follow the SMILES beside them.

System: P388
Assay: Tested for inhibitory activity against p-388 lymphocytic leukemia cells
Format: functional, cell-based
Conditions: Mus musculus

Q: For `CC(C)C[C@@H]1NC(=O)[C@H](Cc2ccccc2)NC(=O)[C@H]([C@@H](C)O)NC(=O)CNC(=O)[C@H](C(C)C)NC(=O)[C@H](Cc2ccc(O)cc2)NC1=O` (HELM PEPTIDE1{F.L.Y.V.G.T}$PEPTIDE1,PEPTIDE1,1:R1-6:R2$$$V2.0), which IC50 is on record?
A: 2.5 µg/mL (≈ 3.67 µM)
